Reference: patent US11352354B2, “Substituted penta-fused hexa-heterocyclic compounds, preparation method therefor, drug combination and use thereof” (Xiamen University, priority 2017, dated 2022)
Where “and” joins values, the source holds several entries; their conditions need not be identical. Equal entries are not always repeated. Entries after “also recorded” stand apart in the source; their conditions may differ.

Key:
[1] = molecular target: PIKfyve protein (Homo sapiens (Human), UniProt Q9Y2I7); assay: Dissociation equilibrium constant (Kd) of compound and PIKfyve protein, DiscoverX KINOMEscan; format: binding; settings: eleven 3-fold dilutions, curve fitting
Sequence of PIKfyve protein (Q9Y2I7 whole entry): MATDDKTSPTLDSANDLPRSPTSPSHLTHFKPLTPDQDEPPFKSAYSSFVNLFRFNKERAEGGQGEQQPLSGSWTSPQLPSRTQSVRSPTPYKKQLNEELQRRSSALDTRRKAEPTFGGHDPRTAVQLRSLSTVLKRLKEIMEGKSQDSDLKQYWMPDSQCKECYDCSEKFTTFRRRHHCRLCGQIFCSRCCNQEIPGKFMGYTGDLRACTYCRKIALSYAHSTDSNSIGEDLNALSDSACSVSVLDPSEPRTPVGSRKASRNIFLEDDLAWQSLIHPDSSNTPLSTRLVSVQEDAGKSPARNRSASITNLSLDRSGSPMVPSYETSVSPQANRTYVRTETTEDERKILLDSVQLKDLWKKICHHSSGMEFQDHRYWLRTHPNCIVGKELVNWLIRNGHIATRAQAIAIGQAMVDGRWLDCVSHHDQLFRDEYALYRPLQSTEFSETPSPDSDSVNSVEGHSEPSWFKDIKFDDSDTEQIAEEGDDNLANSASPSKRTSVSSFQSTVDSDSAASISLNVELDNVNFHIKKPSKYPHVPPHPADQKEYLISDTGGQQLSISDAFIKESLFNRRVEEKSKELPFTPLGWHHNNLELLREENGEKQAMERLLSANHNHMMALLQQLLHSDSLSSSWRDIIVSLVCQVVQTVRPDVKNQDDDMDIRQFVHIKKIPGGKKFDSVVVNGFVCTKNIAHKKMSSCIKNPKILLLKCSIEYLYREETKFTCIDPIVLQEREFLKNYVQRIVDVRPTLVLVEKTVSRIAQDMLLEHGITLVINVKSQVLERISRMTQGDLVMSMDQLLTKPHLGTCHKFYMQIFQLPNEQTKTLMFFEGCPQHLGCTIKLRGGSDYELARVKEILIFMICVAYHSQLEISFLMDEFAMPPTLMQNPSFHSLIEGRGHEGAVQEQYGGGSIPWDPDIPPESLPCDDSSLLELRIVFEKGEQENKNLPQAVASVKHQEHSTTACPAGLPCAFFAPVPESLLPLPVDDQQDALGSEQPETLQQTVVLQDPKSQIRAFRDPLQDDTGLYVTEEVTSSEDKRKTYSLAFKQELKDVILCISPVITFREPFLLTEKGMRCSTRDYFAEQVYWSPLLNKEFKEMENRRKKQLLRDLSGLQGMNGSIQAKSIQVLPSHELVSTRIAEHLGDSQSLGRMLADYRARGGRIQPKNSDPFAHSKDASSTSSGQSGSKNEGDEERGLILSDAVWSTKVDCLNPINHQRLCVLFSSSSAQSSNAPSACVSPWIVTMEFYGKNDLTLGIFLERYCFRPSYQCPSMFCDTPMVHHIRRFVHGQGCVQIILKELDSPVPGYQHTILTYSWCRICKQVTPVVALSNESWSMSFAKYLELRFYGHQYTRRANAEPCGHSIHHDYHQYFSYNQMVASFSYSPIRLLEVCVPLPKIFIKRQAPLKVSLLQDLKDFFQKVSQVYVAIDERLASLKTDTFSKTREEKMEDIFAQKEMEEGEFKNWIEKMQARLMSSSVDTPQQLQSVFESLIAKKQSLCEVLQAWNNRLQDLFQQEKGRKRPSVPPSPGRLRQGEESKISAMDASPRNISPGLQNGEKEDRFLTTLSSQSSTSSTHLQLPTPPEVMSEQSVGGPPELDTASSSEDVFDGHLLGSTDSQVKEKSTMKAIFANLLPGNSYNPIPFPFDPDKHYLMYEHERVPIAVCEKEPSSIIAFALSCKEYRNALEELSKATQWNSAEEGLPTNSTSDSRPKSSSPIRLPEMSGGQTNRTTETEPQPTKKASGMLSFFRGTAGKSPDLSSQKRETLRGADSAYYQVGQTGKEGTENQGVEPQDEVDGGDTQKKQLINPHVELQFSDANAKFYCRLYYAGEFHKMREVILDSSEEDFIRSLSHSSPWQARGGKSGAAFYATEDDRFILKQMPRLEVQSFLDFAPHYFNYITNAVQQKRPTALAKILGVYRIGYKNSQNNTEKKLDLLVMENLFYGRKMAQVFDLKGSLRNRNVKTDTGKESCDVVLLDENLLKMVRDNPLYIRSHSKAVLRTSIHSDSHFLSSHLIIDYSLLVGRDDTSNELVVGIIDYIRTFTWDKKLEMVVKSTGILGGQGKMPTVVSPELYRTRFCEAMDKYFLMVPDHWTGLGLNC
Experimental: II. Determination of Dissociation Equilibrium Constant (Kd Value) of Compound and PIKfyve Protein
The Kd value was determined by DiscoverX's KINOMEscan™ technology according to the following steps:
1. Preparation of magnetic beads: biotin-labeled small molecule ligand and avidin-coated magnetic beads were allowed to interact at room temperature for 30 minutes, and then added with excess biotin, followed by washing with a blocking solution (1% BSA, 0.05% Tween 20, 1 mM DTT) to remove unbound ligand.
2. Binding reaction: in a 384 plate, 0.02 mL system, DNA-labeled protein, small molecule ligand-bound magnetic beads, and different concentrations of compound to be tested were mixed in a reaction solution (0.17×PBS, 0.05% Tween 20, 6 mM DTT) at room temperature with shaking for 1 hr, to which was added an eluant (1×PBS, 0.05% Tween 20) for elution. Magnetic beads were resuspended by an eluant (1×PBS, 0.05% Tween 20, 0.5 μM non-biotin-labeled small molecule ligand), and shaken at room temperature for 30 min before separating out the eluant.
3. Determination of Kd value: the content of protein in the above eluate was determined by qPCR. Eleven 3-fold dilution concentrations were determined for the compound to be tested, with 3 DMSO controls for each concentration, and the Kd value was obtained by curve fitting.

[2] = system: Toledo cells; assay: Growth inhibition of PIKfyve-mediated tumor cells by Cell Titer Glo method, Toledo; format: cell-based; settings: Homo sapiens, 120 h, CellTiter-Glo, 5 days of culture, read-out: Inhibition rate % (Toledo)
Experimental: (§1) IV. Determination of Growth Inhibition Rates of Compounds Against PIKfyve-Mediated Tumor Cells by Cell Titer Glo Method
(§2) 1. Cell plating: cells in logarithmic growth phase were counted and inoculated in 384-well plate.
(§3) 3. […] RLU was measured on PHERAstar Plus.

[3] = system: ST486 cells; assay: Growth inhibition of PIKfyve-mediated tumor cells by Cell Titer Glo method, ST486; format: cell-based; settings: Homo sapiens, 120 h, CellTiter-Glo, 5 days of culture, read-out: Inhibition rate % (ST486)
Experimental: as §1, §2, §3

[4] = system: MDA-MB-231 cells; assay: Vacuolation of MDA-MB-231 cells caused by inhibition of compounds on PIKfyve (microscopy); format: cell-based; settings: for degree of vacuolation, 1 μM, 24 h / degree of vacuolation, 1 μM, 48 h / degree of vacuolation, 10 μM, 24 h / degree of vacuolation, 10 μM, 48 h: MDA-MB-231 cells; for degree of vacuolation, 1 μM, 24 h: key: '+' represents the degree of vacuolation; ++: more '+' indicates more obvious vacuolation; +++: more '+' indicates more obvious vacuolation; ++++: more '+' indicates more obvious vacuolation; '−' represents no vacuolation; for degree of vacuolation, 1 μM, 48 h: key: '+' represents the degree of vacuolation; ++: more '+' indicates more obvious vacuolation; +++: more '+' indicates more obvious vacuolation; ++++: more '+' indicates more obvious vacuolation; '−' represents no vacuolation; for degree of vacuolation, 10 μM, 24 h: key: '+' represents the degree of vacuolation; ++: more '+' indicates more obvious vacuolation; +++: more '+' indicates more obvious vacuolation; ++++: more '+' indicates more obvious vacuolation; '−' represents no vacuolation; for degree of vacuolation, 10 μM, 48 h: key: '+' represents the degree of vacuolation; ++: more '+' indicates more obvious vacuolation; +++: more '+' indicates more obvious vacuolation; ++++: more '+' indicates more obvious vacuolation; '−' represents no vacuolation
Method in brief: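 MDA-MB-231 cells in 12-well plates at 37 °C, 5% CO2 were observed by microscopy after 24 and 48 h of culture for cytoplasmic vacuolation as a readout of PIKfyve inhibition. Scoring was semi-quantitative, from − (none) to increasing +.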

[5] = system: JeKo-1 cells; assay: Tumor cell growth inhibition by MTS method, JeKo-1; format: cell-based; settings: Homo sapiens, JeKo-1, 120 h, 5 days of culture
Experimental: III. Determination of IC50 Value of Compound for Inhibiting Tumor Cell Growth by MTS Method
1. Cell plating: cells in logarithmic growth phase were counted and inoculated in a 96-well plate (20000 cells per well).
2. Administrating agent to cell: 10 mM compound mother solution in DMSO was subjected to 3 fold-gradient dilution, to set 8 concentrations, which were then added to various wells, with three replicates for each concentration, and three blank wells (only culture medium) and three negative controls (containing 0.1% DMSO) on each plate.
3. […] The OD value at 490 nm was measured with microplate reader OD490. The cell growth inhibition rate was calculated by the following formula: Cell growth inhibition rate %=1−(ODexperimental group−ODblank group)/(ODnegative group−ODblank group)×100%
The semi-inhibitory concentration IC50 of the compound acting on cell growth was calculated using GradPad Prism 5 software according to the measured cell growth inhibition rate.
In the following table it lists the IC50 value or the inhibition rates of some compounds at 10 μM against JeKo-1 cells

## Cc1ccc(C(=O)Nc2cc(C(F)(F)F)cc(C(F)(F)F)c2)cc1Nc1nc(-c2cccnc2)c2[nH]ccc2n1 [V-c-9]
[1]
  Kd: 29 nM
[2]
  inhibition at 3.3 µM: 19.3%
[3]
  inhibition at 3.3 µM: 37.7%

## c1cncc(-c2nc(Nc3cc(N4CCOCC4)cc(N4CCOCC4)c3)nc3cc[nH]c23)c1 [V-c-2]
[4]
  degree of vacuolation, 1 μM, 24 h: −
  degree of vacuolation, 1 μM, 48 h: −
  degree of vacuolation, 10 μM, 24 h: −
  degree of vacuolation, 10 μM, 48 h: −
[1]
  Kd: 2000 nM
[2]
  inhibition at 3.3 µM: < 10%
[3]
  inhibition at 3.3 µM: 18%

## COc1ccc(C(F)(F)F)cc1NC(=O)c1ccc(C)c(Nc2nc(-c3cccnc3)c3[nH]ccc3n2)c1 [V-c-12]
[4]
  degree of vacuolation, 1 μM, 24 h: +++
  degree of vacuolation, 1 μM, 48 h: +++
  degree of vacuolation, 10 μM, 24 h: +++
  degree of vacuolation, 10 μM, 48 h: +++
[1]
  Kd: > 30000 nM
[5]
  IC50: 2.79 µM
[2]
  inhibition at 3.3 µM: 95.6%
[3]
  inhibition at 3.3 µM: 72.3%

## Cc1ccc(NC(=O)c2cccc(C(F)(F)F)c2)cc1Nc1nc(-c2cccnc2)c2[nH]ccc2n1 [V-c-19]
[4]; 1 μmol/L, time and concentration dependence
  vacuolation of MDA-MB-231 cells (FIG. 1): induces vacuolation of MDA-MB-231 cells, with good time dependence; also recorded: induces vacuolation of MDA-MB-231 cells, with good concentration dependence
[4]
  degree of vacuolation, 1 μM, 24 h: +++
  degree of vacuolation, 1 μM, 48 h: +++
  degree of vacuolation, 10 μM, 24 h: +++
  degree of vacuolation, 10 μM, 48 h: +++
[1]
  Kd: 16 nM and 15 nM
[5]
  IC50: 2.09 µM
[2]
  inhibition at 3.3 µM: 97.3%
[3]
  inhibition at 3.3 µM: 70.6%

## Cc1ccc(NC(=O)c2cc(C(F)(F)F)cc(C(F)(F)F)c2)cc1Nc1nc(-c2cccnc2)c2[nH]ccc2n1 [V-c-21]
[1]
  Kd: 910 nM
[2]
  inhibition at 3.3 µM: 99.5%
[3]
  inhibition at 3.3 µM: 23.8%

## Cc1ccc(NS(=O)(=O)c2cccc(C(F)(F)F)c2)cc1Nc1nc(-c2cccnc2)c2[nH]ccc2n1 [V-c-20]
[4]
  degree of vacuolation, 1 μM, 24 h: −
  degree of vacuolation, 1 μM, 48 h: ++
  degree of vacuolation, 10 μM, 24 h: −
  degree of vacuolation, 10 μM, 48 h: ++
[1]
  Kd: 1000 nM
[5]
  IC50: 9.41 µM
[2]
  inhibition at 3.3 µM: 99.7%
[3]
  inhibition at 3.3 µM: 33.3%

## Cc1ccc(C(=O)Nc2cccc(C(F)(F)F)c2)cc1Nc1nc(-c2ccncc2)c2[nH]ccc2n1 [V-c-38]
[1]
  Kd: > 30000 nM
[2]
  inhibition at 3.3 µM: 53.3%
[3]
  inhibition at 3.3 µM: 30%

## Cc1ccc(C(=O)Nc2cccc(OC(F)(F)F)c2)cc1Nc1nc(-c2cccnc2)c2[nH]ccc2n1 [V-c-8]
[4]
  degree of vacuolation, 1 μM, 24 h: +++
  degree of vacuolation, 1 μM, 48 h: +++
  degree of vacuolation, 10 μM, 24 h: +++
  degree of vacuolation, 10 μM, 48 h: +++
[1]
  Kd: 13 nM
[5]; 10 μM, read-out: cell growth inhibition rate of compounds at 10 μM
  inhibition at 10 µM: 39%
[2]
  inhibition at 3.3 µM: 96.3%
[3]
  inhibition at 3.3 µM: 51%

## Cc1cc(NC(=O)c2cccc(C(F)(F)F)c2)ccc1Nc1nc(-c2cccnc2)c2[nH]ccc2n1 [V-c-24]
[1]
  Kd: > 30000 nM
[2]
  inhibition at 3.3 µM: 97.3%
[3]
  inhibition at 3.3 µM: 55.8%

## Cc1ccc(NC(=O)c2cccc(C(F)(F)F)c2)cc1Nc1nc(-c2cccnc2)c2c(ccn2C)n1 [V-c-40]
[4]
  degree of vacuolation, 1 μM, 24 h: +
  degree of vacuolation, 1 μM, 48 h: +++
  degree of vacuolation, 10 μM, 24 h: +
  degree of vacuolation, 10 μM, 48 h: +++
[1]
  Kd: 380 nM
[2]
  inhibition at 3.3 µM: 98.8%
[3]
  inhibition at 3.3 µM: 57.1%

## Cc1ccc(C(=O)Nc2cccc(C(F)(F)F)c2)cc1Nc1nc(-c2cccnc2)c2[nH]ccc2n1 [V-c-7]
[4]
  degree of vacuolation, 1 μM, 24 h: ++
  degree of vacuolation, 1 μM, 48 h: ++
  degree of vacuolation, 10 μM, 24 h: +
  degree of vacuolation, 10 μM, 48 h: +
[5]
  IC50: 3.28 µM
[2]
  inhibition at 3.3 µM: 95.8%
[3]
  inhibition at 3.3 µM: 91.3%
